The values that follow come from article PMC12469672, “Effects on Oral Squamous Carcinoma Cell Lines and Their Mechanisms of Pyrazole N-Aryl Sulfonate: A Novel Class of Selective Cyclooxygenase-2 Inhibitors” (International Journal of Molecular Sciences, 2025).

Where two headings read alike, the source gives them in different places.

A word on the IC50: it is the concentration needed to halve the response being measured.

Data set [1] has as its system CAL-27 cells. Kind of data set: CCK-8 proliferation assay, CAL-27. The format is cell-based. The following applies: for IC50: Homo sapiens; for Selectivity Index CAL-27: SI = IC50,VERO/IC50,CAL-27. Here is the method:
The OSCC cell lines CAL-27 (STCC12901P, Servicebio, Wuhan, China) and SAS (CC0706, Cellcook, Guangzhou, China) were cultured in Dulbecco Modified Eagle Medium F12 (DMEM/F12) (G4610-500ML, Servicebio, Wuhan, China) supplemented with 10% fetal bovine serum (FBS) (AB-FBS-DIA1050, ABW, Shanghai, China) and 100 U/mL penicillin-streptomycin-gentamicin solution (G4014-100ML, Servicebio, Wuhan, China). VERO cells were cultured in DMEM (G4524-500ML, Servicebio, Wuhan, China) supplemented with 10% FBS (AB-FBS-DIA1050, ABW, China) and 100 U/mL penicillin–streptomycin–gentamicin solution (G4014-100ML, Servicebio, Wuhan, China). […] were maintained at 37 °C in a humidified 5% CO2 incubator. For experiments, 1 × 10^6 cells were seeded per T-25 culture flask.
CAL-27, SAS, and VERO cells were seeded in 96-well plates at a density of 5000 cells per well. At specified time intervals, 10 μL of Cell Counting Kit-8 (CCK-8) reagent (K1018, Apexbio, Boston, MA, USA) was added to each well and incubated for 2 h. Absorbance at 450 nm was measured using a microplate reader (Infinite M200 Pro, Tecan Group, Männedorf, Switzerland).

For data set [2], the system named is CAL-27 cells. The experiment in a line: Transwell migration assay, CAL-27. The format is cell-based. Conditions: CAL-27, 24 h treatment at working concentrations, vs control. Here is the method:
Following 24 h drug treatment at the predefined working concentrations, CAL-27 and SAS cells (5 × 10^5 cells/mL in serum-free medium) were seeded in Transwell upper chambers (200 μL/well, 1 × 10^5 cells) with 700 μL complete medium containing 10% FBS in lower chambers. After 36 h of incubation (37 °C, 5% CO2), the cells from the upper surface of the membrane were wiped off using a cotton swab, whereupon migrated cells were fixed (4% paraformaldehyde [P0099-100 mL, Beyotime, Haimen, China], 4 °C, 4 h), stained (0.1% crystal violet [C0121-100 mL, Beyotime, China], 30 min), and quantified by counting five random fields under a microscope (CX23, Olympus, Tokyo, Japan) using ImageJ (v1.8.0.322), with triplicate wells per condition.

A further data set has as its system BCL2 mRNA in SAS cells. Kind of data set: RT-qPCR BCL2 mRNA, SAS. Conditions: vs NC and CXB groups. The format is cell-based. Here is the method:
(§1) Equal amounts of RNA were reverse transcribed into cDNA using the Reverse Transcription Kit (AG11705, Accurate Biology, Guangzhou, China) following the manufacturer’s instructions. Quantitative PCR was performed on a QIAGEN Rotor-GeneQ system (9001862, QIAGEN, Hilden, Germany) with SYBR Green Pro Taq HS Premix II (AG11702, Accurate Biology, China).
(§2) The PCR protocol consisted of initial denaturation at 95 °C for 30 s, followed by 40 cycles of 95 °C for 5 s and 60 °C for 30 s. All reactions were performed in triplicate, with melting curve analysis confirming amplification specificity. The expression of the target genes was normalized to GAPDH, and fold changes were calculated in the manner of the 2^−ΔΔCT .
Background: Real-time PCR tracks product formation cycle by cycle.

The subject of data set [3] is CYP19A1 mRNA in SAS cells. Kind of data set: RT-qPCR CYP19A1 mRNA, SAS. Conditions: vs control group and CXB-treated group. The format is cell-based. The method, then:
as §1, §2

Data set [4] deals with BCL2 protein in CAL-27 cells. The experiment in a line: Western blot BCL2, CAL-27. The format is cell-based. Conditions: CAL-27, vs CXB. Here is the method:
(§3) Cell lysates were centrifuged at 12,000× g for 10 min at 4 °C and then quantified using the BCA Protein Assay Kit (CW0014S, Cwbio, Taizhou, China). The lysate was denatured with sodium dodecyl sulfate–polyacrylamide gel electrophoresis (SDS-PAGE) sample loading buffer (P1040, Solarbio, Beijing, China), followed by SDS-PAGE and electrotransfer to polyvinylidene difluoride membranes (10600023, Cytiva, Marlborough, MA, USA). The membranes were incubated overnight at 4 °C with GAPDH (1:5000, 1049-1-AP, Proteintech Group, Wuhan, China), anti-PTGS2 (1:2000, 12375-1-AP, Proteintech Group, China), anti-BAX (1:1000, ab777, Abcam, Cambridge, UK), anti-BCL2 (1:5000, ET1702-53, HUABIO, Hangzhou, China), anti-BCL-XL (1:8000, 10783-1-AP, Proteintech Group, China), anti-MMP2 (1:3000, 66366-1-Ig, Proteintech Group, China), anti-MMP9 (1:3000, 10372-2-AP, Proteintech Group, China), anti-JAK1 (1:3000, 66466-1-Ig, Proteintech Group, China), anti-phospho-JAK1 (1:400, GB115604-100, Servicebio, China), anti-STAT3 (1:2000, 10253-2-AP, Proteintech Group, China), and anti-phospho-STAT3 (1:1000, 39595, Activemotif, Shanghai, China) at the appropriate dilution and then incubated with the secondary antibody at room temperature for 1.5 h. The bands were visualized by employing an ECL detection reagent (36208ES76, Yeasen, Shanghai, China) and independently quantified twice using ImageJ (v1.8.0.322) and ChemiScope Analysis (Version 2.1.6.0) software. Subsequently, the obtained data were normalized to GAPDH.
A general note: Immunoblotting shows a protein as a band on a membrane.

Data set [5] relates to COX-2 protein in CAL-27 cells. The experiment in a line: Western blot COX-2, CAL-27. The format is cell-based. Conditions: CAL-27, vs control group and CXB-treated group. Here is the method: as §3
Data set [6] concerns COX-2 mRNA in CAL-27 cells. The experiment in a line: RT-qPCR COX-2 mRNA, CAL-27. The format is cell-based. The following applies: CAL-27, working concentrations, 24 h. The method, then:
as §1, §2

The next data set deals with MMP9 mRNA in SAS cells. Kind of data set: RT-qPCR MMP9 mRNA, SAS. Type of data set: cell-based. Conditions: vs control. The method, then: as §1, §2
The conditions of data set [7]: cited from earlier work.
Data set [8] relates to JAK/STAT signaling pathway in SAS cells. The experiment in a line: Western blot JAK/STAT signaling pathway, SAS. Type of data set: cell-based. Here is the method: Cell lysates were centrifuged at 12,000× g for 10 min at 4 °C and then quantified using the BCA Protein Assay Kit (CW0014S, Cwbio, Taizhou, China). The lysate was denatured with sodium dodecyl sulfate–polyacrylamide gel electrophoresis (SDS-PAGE) sample loading buffer (P1040, Solarbio, Beijing, China), followed by SDS-PAGE and electrotransfer to polyvinylidene difluoride membranes (10600023, Cytiva, Marlborough, MA, USA). […] The bands were visualized by employing an ECL detection reagent (36208ES76, Yeasen, Shanghai, China) and independently quantified twice using ImageJ (v1.8.0.322) and ChemiScope Analysis (Version 2.1.6.0) software. […]

The conditions of data set [9]: cited from earlier work. The source holds these as a separate data set.
Where [10] appears, read: CAL-27, 24 h, CAL-27, CCK-8, 24 h, given as a range, read-out: IC50 (range).
Where [11] appears, read: CAL-27, CAL-27, CCK-8, read-out: IC50 CAL-27.

In the case of `Cc1cc(-c2ccco2)nn1S(=O)(=O)Oc1ccccc1Cl` [Compound 5f], the IC50 with CAL-27 cells [1] (setting [10]) was 52.9 to 74.8 µM; with CAL-27 cells [1] (setting [11]), 64.2 µM. Besides, the “Selectivity Index CAL-27” value with CAL-27 cells [1] came to 3.50. Further, in the data set with CAL-27 cells [2], the “migratory capacity (Transwell)” value is given as “significantly reduced”. Also, in the data set on BCL2 mRNA in SAS cells, the “BCL2 mRNA expression” value was “significantly suppressed”. Moreover, in data set [3], the “CYP19A1 mRNA expression” value is listed as “significantly reduced”. In addition, the “BCL2 protein suppression (Western blot)” value in data set [4] is on record as “stronger suppression of BCL2 than CXB”. The “COX-2 protein expression (Western blot)” value in data set [5] is recorded as “significantly reduced”. Moreover, the “COX-2 mRNA level” value in data set [6] (vs CXB-treated group) is reported as “significantly lower”; in data set [6] (vs control), “significantly downregulated”.

As to `Cc1ccc(-c2cc(C)n(S(=O)(=O)Oc3ccc(I)cc3)n2)cc1` [Compound 4b], the “MMP9 mRNA level” value in the data set with MMP9 mRNA in SAS cells was “significant reduction”. Besides, the IC50 in the data set with CAL-27 cells [1] (setting [10]) was 38.9 to 43.8 µM; with CAL-27 cells [1] (setting [11]), 41.4 µM. Further, in the data set on CAL-27 cells [1], the “Selectivity Index CAL-27” value is given as 2.47. For the same compound, in the data set with CAL-27 cells [2], the “migratory capacity (Transwell)” value is recorded as “significantly reduced”. For the same compound, the “BCL2 mRNA expression” value in the data set with BCL2 mRNA in SAS cells is on record as “significantly suppressed”. Moreover, the “CYP19A1 mRNA expression” value in data set [3] is on record as “significantly reduced”. For the same compound, in data set [7], the “anti-inflammatory and analgesic activities” value is “excellent”. For the same compound, in [4], the “BCL2 protein suppression (Western blot)” value is given as “stronger suppression of BCL2 than CXB”. Moreover, the “p-JAK1 level (Western blot)” value in data set [8] is given as “no significant change”. Besides, the oral toxicity result in data set [9] is “low oral toxicity”. Moreover, the “COX-2 protein expression (Western blot)” value in [5] is “significantly reduced”. Also, the entries for the “COX-2 mRNA level” value in [6] (vs CXB-treated group) and in [6] (vs control) were “significantly lower” and “significantly downregulated”, respectively.

On to `Cc1ccc(-c2cc(C)n(S(=O)(=O)Oc3ccccc3Cl)n2)cc1` [Compound 4d], for which the IC50 with CAL-27 cells [1] (setting [10]) was 44.3 to 55.1 µM; with CAL-27 cells [1] (setting [11]), 53.9 µM. The “Selectivity Index CAL-27” value in the data set with CAL-27 cells [1] is above 1.86. For the same compound, the “migratory capacity (Transwell)” value in the data set on CAL-27 cells [2] was “significantly reduced”. In addition, in [3], the “CYP19A1 mRNA expression” value was “significantly reduced”. In data set [7], the “anti-inflammatory and analgesic activities” value was “excellent”. Further, the “BCL2 protein suppression (Western blot)” value in data set [4] is “stronger suppression of BCL2 than CXB”. In data set [8] (vs NC), the “total JAK1 (Western blot)” value is “reached statistical significance”. In data set [9], the oral toxicity result is given as “low oral toxicity”. Further, the “COX-2 protein expression (Western blot)” value in data set [5] is given as “significantly reduced”. In addition, the results for the “COX-2 mRNA level” value in data set [6] (vs CXB-treated group) and in data set [6] (vs control) were “significantly lower” and “significantly downregulated”, respectively.
